In data set [1] the target is T1, MMP01 (fibroblast collagenase) (Homo sapiens, UniProt P03956).
T1 construct: purchased Washington University School of Medicine, St. Louis, Mo
T1 sequence (P03956 100-469): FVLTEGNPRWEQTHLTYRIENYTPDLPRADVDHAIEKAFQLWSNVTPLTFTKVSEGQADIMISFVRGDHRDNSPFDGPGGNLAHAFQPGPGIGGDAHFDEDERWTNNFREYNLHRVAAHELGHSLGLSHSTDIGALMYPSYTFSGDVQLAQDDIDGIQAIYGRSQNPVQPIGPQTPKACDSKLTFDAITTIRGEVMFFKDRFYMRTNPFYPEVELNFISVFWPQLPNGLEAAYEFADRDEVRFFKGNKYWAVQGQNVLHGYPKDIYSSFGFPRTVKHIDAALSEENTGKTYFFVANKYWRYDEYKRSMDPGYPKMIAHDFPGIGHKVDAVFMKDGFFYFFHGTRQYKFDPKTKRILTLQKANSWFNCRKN
As to the kind of experiment: Thiopeptolide assay, MMP01. Particulars: thiopeptolide substrate. Type of data set: biochemical. Here is the method:
(§1) IC50 values were determined using a thiopeptolide substrate, Ac-Pro-Leu-Gly-thioester-Leu-Leu-Gly-OEt (Ye Q.-Z., Johnson L. L., Hupe D. J., and Baragi V., “Purification and Characterization of the Human Stromelysin Catalytic Domain Expressed in Escherichia coli,” Biochemistry, 1992;31:11231-11235). MMP01, MMP07, MMP09, and MMP13 activity was assayed in a method similar to MMP02 and MMP03 (SCD and GCD). MMP01 and MMP09 can be obtained from Washington University School of Medicine, St. Louis, Mo. MMP07 can be obtained in accordance with the known procedure set forth by Ye Q-Z, Johnson L. L., and Baragi V., “Gene Syntheses and Expression in E. coli for PUMP, a Human Matrix Metalloproteinase” Biochem. and Biophys. Res. Comm., 1992;186:143-149. MMP13 can be obtained in accordance with the known procedure set forth by Freije J. M. P., et al., “Molecular Cloning and Expression of Collegenase-3, a Novel Human Matrix Metalloproteinase Produced by Breast Carcinomas” J. Bio. Chem., 1994;269:16766-16773.
(§2) Hydrolysis of the thiopeptolide substrate Ac-Pro-Leu-Gly-thioester-Leu-Leu-Gly-OEt (Bachem) is used as the primary screen to determine IC50 values for MMP inhibitors. A 100 μL reaction contains 1 mM 5,5′-dithiobis(2-nitrobenzoic acid) (DTNB), 100 μM substrate, 0.1% Brij, enzyme, and inhibitor in the appropriate reaction buffer. Activated full-length enzymes are assayed at 5 nM, Stromelysin Catalytic Domain (SCD) at 10 nM, and Gelatinase A Catalytic Domain (GaCD) at 1 nM. Inhibitors are screened from 100 μM to 1 nM. Full-length enzymes are assayed in 50 mM HEPES, 10 mM CaCl2, pH 7.0; SCD in 50 mM MES, 10 mM CaCl2, pH 6.0; and GaCD in 50 mM MOPS, 10 mM CaCl2, 10 μM ZnCl2, pH 7.0.

The target of data set [2] is MMP02 (GCD, recombinant gelatinase A catalytic domain) (Homo sapiens, UniProt P08253). As to the kind of experiment: Thiopeptolide assay, gelatinase A catalytic domain (GCD). The settings on record: thiopeptolide substrate. The class given is biochemical. As for the experimental part:
as §1, §2

Data set [3] concerns the target T2, MMP03 (SCD, stromelysin-1 catalytic domain) (Homo sapiens, UniProt P08254).
T2 construct: SCD (stromelysin-1 catalytic domain); made in house; host or cells: Escherichia coli
The experiment in a line: Thiopeptolide assay, stromelysin-1 catalytic domain (SCD). Type of data set: biochemical. Particulars: thiopeptolide substrate. Here is the method: as §1, §2

The target in data set [4] is T3, stromelysin catalytic domain (SCD) (Homo sapiens, UniProt P08254).
T3 construct: SCD (stromelysin-1 catalytic domain); made in house; host or cells: Escherichia coli
As to the kind of experiment: Soluble proteoglycan assay (stromelysin natural substrate assay) SCD (PG). The settings on record: solubilized proteoglycan substrate. Type of data set: biochemical. As for the experimental part: Soluble Proteoglycan Assay (Stromelysin Natural Substrate Assay) SCD (PG)
Solubilized proteoglycan substrate is prepared from bovine cartilage powder (Sigma) using the method described by Nagase and Woessner in Anal. Biochem., 1980;107:385-392. A 100 μL reaction contains 10 μg/mL proteoglycan, enzyme, and inhibitor in 50 mM MES, 10 mM CaCl2, pH 6.0. Activated full-length stromelysin or stromelysin catalytic domain (SCD) is assayed at 100 nM. Inhibitors are screened from 100 μM to 1 nM. The reaction is incubated at 37° C. for 3 hours then stopped with the addition of 1,10-phenanthroline at a final concentration of 1 mM. Reaction products are separated from undigested substrate using ultrafree-MC polysulfone microcons with a 300,000 molecular weight cut-off membrane (Millipore) and quantified using a modified […] (DMB) assay described by Farndale, Sayers, and Barrett in Connective Tissue Research, 1982;9:247-248. Absorbance is measured at 518 nm using 32 μg/mL DMB in a 1 mL reaction. The standard curve is constructed from 0 to 100 μg shark cartilage chondroitin sulfate C (Sigma).

In another data set the target is gelatinase A (Homo sapiens, UniProt P08253). As to the kind of experiment: Gelatin assay (gelatinase natural substrate assay) (Gel). The class given is biochemical. Here is the method:
Gelatin Assay (Gelatinase Natural Substrate Assay) (Gel)
Rat tail Type I collagen (Sigma) is denatured by heating at 95° C. for 20 minutes to prepare the gelatin substrate. A 50 μL reaction contains 1.12 mg/mL substrate, enzyme, inhibitor, and 80 μg/mL soy bean trypsin inhibitor as an inert internal standard in 50 mM MOPS, 10 mM CaCl2, 10 μM ZnCl2, pH 7.0. Activated full-length gelatinase A is assayed at 1 nM and gelatinase A catalytic domain (GaCD) at 10 nM. Inhibitors are screened from 100 μM to 1 nM. The reactions are incubated at 37° C. for 30 minutes then stopped with 50 μL at 2× Tricine gel loading buffer (Novex). Reaction products are separated from undigested substrate by electrophoresis on Tricine-SDS 10-20% polyacrylamide gradient gels (Novex). Protein bands are stained with Coomassie Brilliant Blue R and quantified using a Bio Image densitometer (Millipore). IC50 values are calculated from the disappearance of substrate using the sum of the top three bands of each reaction after normalization with the internal standard.

A short description of data set [5]: MMP inhibitor bioassay (inhibitor plasma level after gavage). Type of data set: in vivo, rat. Particulars: 50 mg/kg by gavage. As for the experimental part:
Animals are dosed by gavage with either vehicle or compound at 2, 10, or 50 mg/kg. Blood samples are collected from 3 to 4 animals from each dosing group at 1, 2, 4, 6, and 24 hour postdose, centrifuged, and the plasma immediately frozen at −20° C. Plasma protein is precipitated with an equal volume of acetonitrile and separated by centrifugation at room temperature. The supernate is evaporated to dryness and reconstituted to the original plasma volume with 50 mM Tris, pH 7.6. Ten-fold serial dilutions of the reconstituted plasma samples are prepared in 50 mM Tris, pH 7.6 for dose response assays using the appropriate thiopeptolide assay. […] All control samples are subjected to acetonitrile precipitation and analyzed with the thiopeptolide assay.

In a further data set the target is T4, MMP13 (collagenase-3) (Homo sapiens, UniProt P45452).
T4 construct: made in house
As to the kind of experiment: Thiopeptolide assay, MMP13. The class given is biochemical. The settings on record: thiopeptolide substrate. Here is the method: as §1, §2

A further data set concerns the target T5, MMP07 (matrilysin) (Homo sapiens, UniProt P09237).
T5 construct: made in house; host or cells: E. coli
T5 sequence (P09237 95-267): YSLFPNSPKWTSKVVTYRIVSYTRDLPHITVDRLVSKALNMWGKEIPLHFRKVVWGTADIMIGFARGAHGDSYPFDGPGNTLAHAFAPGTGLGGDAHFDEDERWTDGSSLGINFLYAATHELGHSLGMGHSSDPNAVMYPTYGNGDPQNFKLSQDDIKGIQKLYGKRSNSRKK
As to the kind of experiment: Thiopeptolide assay, MMP07. The class given is biochemical. The settings on record: thiopeptolide substrate. As for the experimental part:
as §1, §2

[6] abbreviates: catalytic domain, read-out: (GCD) MMP02 IC50.
[7] abbreviates: catalytic domain, read-out: (SCD) MMP03 IC50.

We go through 15 compounds from patent US6906092B2, “Method of inhibiting matrix metalloproteinases” (Warner-Lambert Company, priority 1996, dated 2005).

For orientation: IC50 means the concentration that inhibits the measured activity by half. For orientation: melting point means the temperature of the solid-liquid transition.

Where two headings read alike, the source gives them in different places.

MMP02 (GCD, recombinant gelatinase A catalytic domain), sequence (P08253 110-221 limits assumed): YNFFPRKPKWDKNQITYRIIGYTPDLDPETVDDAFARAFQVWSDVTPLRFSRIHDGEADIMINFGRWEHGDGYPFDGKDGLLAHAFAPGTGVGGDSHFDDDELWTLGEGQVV
MMP02 (GCD, recombinant gelatinase A catalytic domain), sequence (P08253 397-465 limits assumed): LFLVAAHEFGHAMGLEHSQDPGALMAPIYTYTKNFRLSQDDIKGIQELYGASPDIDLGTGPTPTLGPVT
T2 sequence (P08254 100-272 limits assumed): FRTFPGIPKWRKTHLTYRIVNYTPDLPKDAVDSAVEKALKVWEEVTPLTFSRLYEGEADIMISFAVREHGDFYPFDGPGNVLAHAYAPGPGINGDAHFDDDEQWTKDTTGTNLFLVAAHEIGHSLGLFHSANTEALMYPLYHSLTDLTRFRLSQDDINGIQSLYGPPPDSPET
T3 sequence (P08254 100-272 limits assumed): as above

For the compound `CC(C)C[C@H](NS(=O)(=O)c1ccc2oc3ccccc3c2c1)C(=O)O` [Example 1, (L)-2-(Dibenzofuran-2-sulfonylamino)-4-methyl-pentanoic acid], the IC50 came out at 66000 nM in data set [1] and 320 nM in data set [2] (setting [6]).

On to `CCC(C)[C@H](NS(=O)(=O)c1ccc2oc3ccccc3c2c1)C(=O)O` (stereo partly shown) [Example 2, (L)-2-(Dibenzofuran-2-sulfonylamino)-3-methyl-pentanoic acid], for which the figures for the IC50 in data set [3] (setting [7]) and in data set [2] (setting [6]) were 1500 nM and 2300 nM, respectively.

On to `O=C(O)[C@H](Cc1ccccc1)NS(=O)(=O)c1ccc2oc3ccccc3c2c1` [Example 3, (L)-2-(Dibenzofuran-2-sulfonylamino)-3-phenyl-propionic acid], for which the melting point was 196 to 198 °C. For the same compound, the IC50 in data set [2] (setting [6]) was 900 nM.

Take `C[C@H](NS(=O)(=O)c1ccc2oc3ccccc3c2c1)C(=O)O` [Example 4, (L)-2-(Dibenzofuran-2-sulfonylamino)-propionic acid]: the values for the IC50 in [3] (setting [7]) and in data set [2] (setting [6]) were 5400 nM and 1700 nM, respectively.

`CC(C)[C@H](NS(=O)(=O)c1ccc2oc3ccccc3c2c1)C(=O)O` [Example 5, (L)-2-(Dibenzofuran-2-sulfonylamino)-3-methyl-butyric acid]: the melting point lay in the range of 163 to 165 °C. The IC50 in [3] (Table 2, read-out: SCD (IC50)) was determined as 233 nM. In data set [1], this compound had a half-inhibitory concentration (IC50) of 19000 nM. The IC50 in [2] (Table 2, read-out: GCD (IC50)) amounted to 84 nM. The IC50 in [2] (setting [6]) was 84 nM. In [4], this compound had a half-inhibitory concentration (IC50) of 8900 nM. Besides, the concentration for half-maximal inhibition (IC50) on gelatinase A is 580 nM. Further, the “Bioassay Peak (inhibitor plasma level)” value in data set [5] (peak) turned out to be 82 µM. This compound also returned a concentration at 24 h in [5] (rat, plasma, oral, 24 hours postdose) of 180 nM.

`O=C(O)CNS(=O)(=O)c1ccc2oc3ccccc3c2c1` [Example 6, (Dibenzofuran-2-sulfonylamino)-acetic acid] returned a melting point of 208 to 210 °C. In data set [3] (setting [7]), the IC50 is 4800 nM. Also, the IC50 in [2] (setting [6]) is 730 nM.

`O=C(O)C[C@H](NS(=O)(=O)c1ccc2oc3ccccc3c2c1)C(=O)O` [Example 7, (L)-2-(Dibenzofuran-2-sulfonylamino)-succinic acid] came in with a melting point of 165 to 168 °C. Also, in data set [3] (setting [7]), the IC50 stood at 1000 nM. Also, the concentration for half-maximal inhibition (IC50) in data set [2] (setting [6]) is 1200 nM.

Take `O=C(O)[C@H](CSC(c1ccccc1)(c1ccccc1)c1ccccc1)NS(=O)(=O)c1ccc2oc3ccccc3c2c1` [Example 8, (L)-2-(Dibenzofuran-2-sulfonylamino)-3-tritylsulfanyl-propionic acid]: the IC50 in data set [2] (setting [6]) was 9400 nM.

As to `O=C(O)[C@H](CS)NS(=O)(=O)c1ccc2oc3ccccc3c2c1` [Example 9, (L)-2-(Dibenzofuran-2-sulfonylamino)-3-mercapto-propionic acid], the IC50 in data set [2] (setting [6]) came out at 4500 nM.

In the case of `CCC(C)[C@H](NS(=O)(=O)c1ccc2oc3ccccc3c2c1)C(=O)NO` (stereo partly shown) [Example 10, (L)-2-(Dibenzofuran-2-sulfonylamino)-3-methyl-pentanoic acid hydroxyamide], the 50% inhibitory concentration (IC50) in [2] (setting [6]) is 35000 nM.

Consider `CC(C)[C@H](NS(=O)(=O)c1ccc2c(c1)oc1ccccc12)C(=O)O` [Example 11, (L)-2-(dibenzofuran-3-sulfonylamino)-3-methyl-butyric acid], for which the IC50 turned out to be 47 nM on MMP13 (collagenase-3); 15 nM in data set [3] (setting [7]); 5000 nM at MMP07 (matrilysin); 1800 nM in data set [1]; 4.5 nM in data set [2] (setting [6]).

Take `CC(C)[C@H](NS(=O)(=O)c1ccc2c(c1)Cc1ccccc1-2)C(=O)O` [Example 12, (L)-2-(9H-Fluorene-2-sulfonylamino)-3-methyl-butyric acid]: the IC50 at MMP13 (collagenase-3) was determined as 340 nM; in data set [3] (setting [7]), 185 nM; against MMP07 (matrilysin), 10800 nM; in data set [1] it was 32300 nM; in data set [2] (setting [6]) it was 49 nM.

As for `CC(C)[C@H](NS(=O)(=O)c1ccc2sc3ccccc3c2c1)C(=O)O` [Example 14, (L)-2-(Dibenzothiophene-2-sulfonylamino)-3-methyl-butyric acid], the IC50 against MMP13 (collagenase-3) was found to be 2600 nM; in [3] (setting [7]), 690 nM; against MMP07 (matrilysin), 27000 nM; in data set [2] (setting [6]), 610 nM.

As for `CC(C)[C@H](NS(=O)(=O)c1ccc2oc3cc(Br)ccc3c2c1)C(=O)O` [Example 16, (L)-2-(7-Bromo-dibenzofuran-2-sulfonylamino)-3-methyl-butyric acid], the IC50 amounted to 750 nM in [3] (setting [7]) and 470 nM in data set [2] (setting [6]).

For `CC(C)[C@H](NS(=O)(=O)c1ccc2oc3cc(-c4ccccc4)ccc3c2c1)C(=O)O` [Example 17, (L)-3-Methyl-2-(7-phenyl-dibenzofuran-2-sulfonylamino)-butyric acid], the IC50 amounted to 690 nM against MMP13 (collagenase-3), 62 nM in data set [3] (setting [7]), 6000 nM at MMP07 (matrilysin) and 360 nM in data set [2] (setting [6]).
